Columns and labels:
[1] = Inhibition of L-type calcium channel at 10 uM
[2] = target: hERG (KCNH2) (Homo sapiens, UniProt Q12809); assay: Inhibition of human ERG at 10 uM
[3] = target: T1, Alpha-1D adrenergic receptor (Homo sapiens, UniProt P25100); assay: Inhibition of cloned adrenergic Alpha-1D receptor
T1 sequence (P25100 whole entry): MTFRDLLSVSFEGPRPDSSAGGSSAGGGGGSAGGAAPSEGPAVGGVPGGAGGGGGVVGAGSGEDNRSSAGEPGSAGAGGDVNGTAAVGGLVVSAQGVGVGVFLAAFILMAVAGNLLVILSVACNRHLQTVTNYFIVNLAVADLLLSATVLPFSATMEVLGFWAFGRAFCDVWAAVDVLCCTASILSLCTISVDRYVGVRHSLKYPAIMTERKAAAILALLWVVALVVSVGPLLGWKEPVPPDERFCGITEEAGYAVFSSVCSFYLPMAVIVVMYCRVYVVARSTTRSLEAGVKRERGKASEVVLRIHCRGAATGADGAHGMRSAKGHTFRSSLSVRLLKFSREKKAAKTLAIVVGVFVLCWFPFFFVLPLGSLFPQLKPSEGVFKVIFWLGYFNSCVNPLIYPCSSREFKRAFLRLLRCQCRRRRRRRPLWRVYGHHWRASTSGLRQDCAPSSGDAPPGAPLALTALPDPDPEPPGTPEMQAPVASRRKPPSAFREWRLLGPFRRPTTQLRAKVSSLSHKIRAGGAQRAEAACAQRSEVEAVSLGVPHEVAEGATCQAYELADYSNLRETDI

[4] = target: T2, Alpha-2A adrenergic receptor (Homo sapiens) (UniProt P08913); assay: Displacement of [3H]MK912 from human cloned adrenergic alpha-2a receptor at 10 uM
T2 sequence (whole entry): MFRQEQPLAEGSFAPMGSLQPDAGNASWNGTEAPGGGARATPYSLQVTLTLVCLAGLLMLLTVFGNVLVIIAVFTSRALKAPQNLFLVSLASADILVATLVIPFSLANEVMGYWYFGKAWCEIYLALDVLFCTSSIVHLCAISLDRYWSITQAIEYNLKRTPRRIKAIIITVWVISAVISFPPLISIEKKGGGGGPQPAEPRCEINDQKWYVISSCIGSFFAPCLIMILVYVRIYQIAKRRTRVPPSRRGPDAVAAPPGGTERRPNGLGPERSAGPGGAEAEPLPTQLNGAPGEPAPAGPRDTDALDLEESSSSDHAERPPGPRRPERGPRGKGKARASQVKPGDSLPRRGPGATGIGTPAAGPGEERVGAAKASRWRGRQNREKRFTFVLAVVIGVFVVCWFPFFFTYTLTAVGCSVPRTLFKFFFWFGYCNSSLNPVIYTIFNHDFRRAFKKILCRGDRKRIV

[5] = target: T3, Alpha-2A adrenergic receptor (Homo sapiens, UniProt P08913); assay: Displacement of [3H]MK912 from human cloned adrenergic alpha-2a receptor
T3 sequence (P08913 whole entry): T2 sequence (whole entry)

[6] = target: Histamine H2 receptor (Cavia porcellus, UniProt P47747); assay: Displacement of [125I]-APT from histamine H2 receptor in brain of guinea pig; type: tissue-based
[7] = target: Histamine H3 receptor (Rattus norvegicus, UniProt Q9QYN8); assay: Displacement of [3H]SMT from histamine H3 receptor in forebrain of rat
[8] = target: T4, Alpha-1D adrenergic receptor (Homo sapiens) (UniProt P25100); conditions: 10 uM
T4 sequence (whole entry): T1 sequence (P25100 whole entry)
Description: Inhibition of cloned adrenergic Alpha-1D receptor at 10 uM

[9] = target: Histamine H3 receptor (Rattus norvegicus) (UniProt Q9QYN8); conditions: 10 uM
Histamine H3 receptor (Rattus norvegicus), sequence (Q9QYN8 whole entry): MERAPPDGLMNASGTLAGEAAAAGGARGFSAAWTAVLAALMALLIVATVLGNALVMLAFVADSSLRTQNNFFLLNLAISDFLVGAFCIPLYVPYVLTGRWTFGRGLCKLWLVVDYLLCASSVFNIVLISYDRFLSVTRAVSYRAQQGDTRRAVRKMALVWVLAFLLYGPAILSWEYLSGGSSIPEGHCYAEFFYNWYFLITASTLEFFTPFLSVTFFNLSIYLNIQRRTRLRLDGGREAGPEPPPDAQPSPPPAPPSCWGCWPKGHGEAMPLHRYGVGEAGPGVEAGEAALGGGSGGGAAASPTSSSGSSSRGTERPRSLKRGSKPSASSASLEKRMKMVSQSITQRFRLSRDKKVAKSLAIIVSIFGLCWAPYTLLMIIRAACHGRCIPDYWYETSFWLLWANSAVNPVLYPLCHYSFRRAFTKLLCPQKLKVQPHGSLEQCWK
Description: Displacement of [3H]SMT from histamine H3 receptor in forebrain of rat at 10 uM

Histamine H3 receptor, sequence (Q9QYN8 whole entry): as above
Histamine H2 receptor, sequence (P47747 whole entry, looked up): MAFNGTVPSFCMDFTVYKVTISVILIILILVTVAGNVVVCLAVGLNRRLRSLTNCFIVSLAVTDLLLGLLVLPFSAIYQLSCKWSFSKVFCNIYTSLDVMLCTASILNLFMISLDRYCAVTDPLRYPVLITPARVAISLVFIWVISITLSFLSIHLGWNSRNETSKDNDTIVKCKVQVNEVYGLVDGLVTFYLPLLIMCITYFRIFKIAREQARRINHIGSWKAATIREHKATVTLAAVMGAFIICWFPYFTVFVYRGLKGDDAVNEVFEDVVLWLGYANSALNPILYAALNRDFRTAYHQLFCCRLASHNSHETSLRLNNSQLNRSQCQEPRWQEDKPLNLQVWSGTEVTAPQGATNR
hERG (KCNH2), sequence (Q12809 whole entry): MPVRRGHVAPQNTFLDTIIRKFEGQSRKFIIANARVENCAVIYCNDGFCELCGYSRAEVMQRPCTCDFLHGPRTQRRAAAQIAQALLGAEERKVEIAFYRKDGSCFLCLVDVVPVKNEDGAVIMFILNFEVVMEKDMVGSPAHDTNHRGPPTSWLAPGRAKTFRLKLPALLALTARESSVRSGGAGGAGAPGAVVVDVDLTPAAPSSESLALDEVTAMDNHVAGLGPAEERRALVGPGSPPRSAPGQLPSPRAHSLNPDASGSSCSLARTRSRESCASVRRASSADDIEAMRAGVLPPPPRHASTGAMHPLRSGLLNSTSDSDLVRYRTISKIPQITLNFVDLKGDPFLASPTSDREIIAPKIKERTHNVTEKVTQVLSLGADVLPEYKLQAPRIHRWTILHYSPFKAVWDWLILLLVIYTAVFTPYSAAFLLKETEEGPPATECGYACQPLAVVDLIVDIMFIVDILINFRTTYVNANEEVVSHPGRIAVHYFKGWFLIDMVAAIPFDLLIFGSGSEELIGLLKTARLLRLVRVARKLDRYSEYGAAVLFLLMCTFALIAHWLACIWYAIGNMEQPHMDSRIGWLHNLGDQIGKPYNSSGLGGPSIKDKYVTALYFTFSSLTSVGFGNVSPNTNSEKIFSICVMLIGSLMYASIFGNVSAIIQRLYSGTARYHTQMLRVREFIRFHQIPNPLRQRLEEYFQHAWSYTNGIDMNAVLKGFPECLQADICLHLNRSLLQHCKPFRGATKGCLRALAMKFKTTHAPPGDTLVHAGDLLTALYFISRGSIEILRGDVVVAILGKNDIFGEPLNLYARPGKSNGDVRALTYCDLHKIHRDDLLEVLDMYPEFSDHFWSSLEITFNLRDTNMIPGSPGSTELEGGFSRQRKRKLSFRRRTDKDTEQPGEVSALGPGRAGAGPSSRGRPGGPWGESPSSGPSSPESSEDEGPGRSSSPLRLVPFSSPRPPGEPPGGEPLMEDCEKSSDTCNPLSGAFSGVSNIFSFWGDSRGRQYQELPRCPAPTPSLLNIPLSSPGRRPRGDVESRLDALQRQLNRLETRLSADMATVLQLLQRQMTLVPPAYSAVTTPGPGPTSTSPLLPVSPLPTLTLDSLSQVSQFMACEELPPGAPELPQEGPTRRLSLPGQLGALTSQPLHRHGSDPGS

`CN(C)CCCOc1ccc(CCNC(=O)c2cc(Br)c[nH]2)cc1Br` [DISPYRIN] gave an inhibition [1] of 50%, an inhibition at 10 µM [2] of 50% and an IC50 [3] of 560 nM. For the same molecule, the Ki [3] was 275 nM, the inhibition [4] was 97% and the IC50 [5] was 185 nM. It also gave a Ki [5] of 69 nM, an IC50 [6] of 1250 nM and a Ki [6] of 1020 nM. For the same molecule, the IC50 [7] was 2350 nM, the Ki [7] was 1040 nM and the inhibition [8] was 91%. For the same molecule, the inhibition [9] was 91%.
